Measurements from PMC10246557, “Kinetic and inhibition studies on human Jumonji-C (JmjC) domain-containing protein 5” (RSC Chemical Biology, 2023).
Where “and” joins values, the source holds several entries; their conditions need not be identical. Equal entries are not always repeated. Where two headings read alike, the source gives them in different places.

How the values were obtained:
human KDM4E [1] = biological target: T1, human KDM4E (Homo sapiens, UniProt B2RXH2); assay: KDM4E SPE-MS inhibition assay; format: biochemical; conditions: KDM4E 0.15 μM, peptide 10.0 μM, LAA 100 μM, FAS 10 μM, 2OG 10 μM
T1 sequence (B2RXH2 1-506): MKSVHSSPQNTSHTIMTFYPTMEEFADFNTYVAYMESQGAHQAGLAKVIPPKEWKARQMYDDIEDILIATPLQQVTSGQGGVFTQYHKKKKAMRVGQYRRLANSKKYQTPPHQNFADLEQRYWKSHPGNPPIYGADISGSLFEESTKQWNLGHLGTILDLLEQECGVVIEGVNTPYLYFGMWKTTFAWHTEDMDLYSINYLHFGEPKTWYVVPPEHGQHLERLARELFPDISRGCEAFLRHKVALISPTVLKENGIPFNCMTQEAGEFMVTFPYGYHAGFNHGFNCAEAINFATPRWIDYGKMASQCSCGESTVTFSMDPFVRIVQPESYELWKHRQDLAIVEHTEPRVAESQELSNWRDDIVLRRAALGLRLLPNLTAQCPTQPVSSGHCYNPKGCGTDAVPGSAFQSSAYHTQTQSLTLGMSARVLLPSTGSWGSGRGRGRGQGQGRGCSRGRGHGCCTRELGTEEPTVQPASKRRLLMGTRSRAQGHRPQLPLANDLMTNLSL
Method: KDM4E turnover and inhibition assays were performed as reported using recombinant human KDM4E and a histone 3 K9(me3) derivative (i.e. […](me3)STGGIA)[41] as substrate.[95] […]

human KDM4E [2] = biological target: T1, human KDM4E; assay: KDM4E SPE-MS turnover and kinetic assay (H3 K9(me3) peptide demethylation); format: biochemical; conditions: absence of 2OG, KDM4E 0.15 μM, 2OG derivative 330 μM, Fe(II) 50 μM, ARTAQTARK(me3)STGGIA 10.0 μM
Method: KDM4E turnover and inhibition assays were performed as reported using recombinant human KDM4E and a histone 3 K9(me3) derivative (i.e. […](me3)STGGIA)[41] as substrate.[95]
Supplementary Figure S3. Rates of KDM4E-catalyzed Nε-trimethyl lysine demethylations of a histone 3- […]
Maximum velocities (vapp ) and Michaelis […]
catalyzed Nε-trimethyl lysine demethylation of the histone 3 K9(me3)-derived peptide […]
(me3)STGGIA2 by SPE-MS as described;3 note that mono-, di-, and tri-demethylated product […]
buffer (50 mM MES, pH 7.0, 20 °C). Measurement times were normalized to the first sample injection analyzed […]
(§1) Data are shown as the mean of three independent runs (n = 3; mean ± SD).
(a) Time course of the KDM4E-catalyzed Nε-trimethyl lysine demethylation reaction of the […]

human JMJD5 [3] = biological target: T2, human JMJD5 (Homo sapiens, UniProt Q8N371); assay: SPE-MS JMJD5 turnover and kinetic assay (RPS6_128–148 hydroxylation); format: biochemical; conditions: for JMJD5 (%): RPS6_128–148 hydroxylation with the compound as cosubstrate: absence of 2OG, JMJD5 0.15 μM, 2OG derivative 400 μM, Fe(II) 20 μM, RPS6_128–148 2.0 μM
T2 construct: made in house; host or cells: Escherichia coli BL21(DE3)
Method: JMJD5 turnover assays for time course and kinetic experiments were performed in 96-well polypropylene assay plates (Greiner) with either […] total reaction volume using the concentrations given in the manuscript or ESI, ^† and JMJD5-catalysed substrate hydroxylation was directly monitored using SPE-MS. […] Assay samples were aspirated under vacuum for 0.6 s and loaded onto a C4 solid phase extraction (SPE) cartridge. After loading, the C4 SPE cartridge was washed with 0.1%v/v aqueous formic acid to remove non-volatile buffer salts (5.5 s, 1.5 mL min^−1). The peptide was eluted from the SPE cartridge with 0.1%v/v aqueous formic acid in 80/20v/v acetonitrile/water into the mass spectrometer (5.5 s, 1.5 mL min^−1) and the SPE cartridge re-equilibrated with 0.1%v/v aqueous formic acid (0.5 s, 1.5 mL min^−1). The mass spectrometer was operated using the MassHunter Workstation B.08.00 software (Agilent), the mass spectrometer parameters were: capillary voltage (4000 V), nozzle voltage (1000 V), fragmentor voltage (365 V), gas temperature (280 °C), gas flow (13 L min^−1), sheath gas temperature (350 °C), sheath gas flow (12 L min^−1). […] Data were exported into Microsoft Excel and used to calculate the % conversion of the hydroxylation reaction using the equation: % conversion = 100 × (integral product peptide)/(integral substrate peptide + integral product peptide).
parameters (continues on the following two pages). Maximum velocities (vapp ) and Michaelis constants (Kapp)
of JMJD5 were determined in independent triplicates, monitoring the JMJD5-catalyzed hydroxylation of the
SPE-MS, as described (Experimental Section).
20 °C). Measurement times were normalized to the first sample injection analyzed after the addition of JMJD5 to
shown as the mean of three independent runs (n = 3; mean ± standard deviation, SD).
hexahydrate (20 μM, (NH4)2Fe(SO4)2·6H2O); and (b) hydroxylation rates used to determine kinetic parameters of
(1 picture or pasted object on this page, not shown here)
Maximum velocities (vapp ) and
Michaelis constants (Kapp) of JMJD5 were determined in independent triplicates for (1R)-3-
(carboxycarbonyl)cyclopentane-1-carboxylic acid (14), monitoring the JMJD5-catalyzed hydroxylation of the
as described (Experimental Section).
pH 7.5, 20 °C). Measurement times were normalized to the first sample injection analyzed after the addition of
as §1
to determine kinetic parameters of JMJD5 for 14.

human AspH [4] = conditions: absence of 2OG, AspH 0.1 μM, 2OG derivative 330 μM, Fe(II) 50 μM, hFX-CP101–119 2.0 μM, cited from earlier work
human JMJD5 [5] = biological target: T2, human JMJD5; assay: SPE-MS JMJD5 inhibition assay; format: biochemical; conditions: JMJD5 0.15 μM, 2OG 2.0 μM, Fe(II) 2.0 μM, LAA 100 μM, RPS6_128–148 2.0 μM; read-out: IC50 JMJD5
Method: Solutions of the small-molecules (100% DMSO) were dry dispensed across 384 well polypropylene V-bottom assay microplates (Greiner) in an approximately three-fold and 11-point dilution series (100 μM inhibitor top concentration; the final DMSO assay concentration was kept constant at 0.5%v/v) using an ECHO 550 acoustic dispenser (Labcyte). […] Each reaction was performed in technical duplicates in adjacent wells of the assay plates; additionally, assays were performed in two independent duplicates on different days using different inhibitor solutions.
The Enzyme Mixture (25 μL per well), containing 0.3 μM His6-thioredoxin-tagged JMJD5 in buffer (50 mM MOPS, pH 7.5), was dispensed across the inhibitor-containing 384-well plates with a multidrop dispenser (ThermoFischer Scientific) at 20 °C under an ambient atmosphere. The plates were subsequently centrifuged (1000 rpm, 5 s) and incubated for 15 min at 20 °C. […] The plates were centrifuged (1000 rpm, 5 s) and, after incubating for 30 min, the enzyme reaction was stopped by the addition of 10%v/v aqueous formic acid (5 μL per well). The plates were then centrifuged (1000 rpm, 30 s) and analyzed by MS.
Z′-Factors were calculated according to the cited literature using Microsoft Excel.[61]

human FIH [6] = conditions: absence of 2OG, FIH 0.15 μM, 2OG derivative 330 μM, Fe(II) 50 μM, HIF-1α788–822 5.0 μM, cited from earlier work
human FIH [7] = tested on: human FIH; parameters: method as in ref 10 (ESI); conditions: FIH 0.15 μM, HIF-1α788-822 5.0 μM, 2OG 10 μM; ref 10 (ESI); cited from earlier work
human AspH [8] = tested on: human AspH; parameters: method as in ref 9 (ESI); conditions: AspH 0.05 μM, hFX-CP101-119 1.0 μM, 2OG 3.0 μM; ref 9 (ESI); cited from earlier work

T2 sequence (Q8N371 whole entry): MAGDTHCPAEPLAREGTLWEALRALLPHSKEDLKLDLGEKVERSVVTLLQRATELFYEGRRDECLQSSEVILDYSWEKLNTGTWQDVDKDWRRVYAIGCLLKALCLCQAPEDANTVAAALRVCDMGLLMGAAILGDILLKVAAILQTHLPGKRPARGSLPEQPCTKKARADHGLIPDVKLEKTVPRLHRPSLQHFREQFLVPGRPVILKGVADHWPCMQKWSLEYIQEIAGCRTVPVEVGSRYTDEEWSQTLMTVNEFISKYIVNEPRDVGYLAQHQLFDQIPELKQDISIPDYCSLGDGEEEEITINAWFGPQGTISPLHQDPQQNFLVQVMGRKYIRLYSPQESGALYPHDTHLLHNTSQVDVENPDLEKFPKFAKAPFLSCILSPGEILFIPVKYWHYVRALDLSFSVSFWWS

Compound	IC50 (human KDM4E [1])	KDM4E (%): substrate demethylation with the compound as cosubstrate (human KDM4E [2])	JMJD5 (%): RPS6_128–148 hydroxylation with the compound as cosubstrate (human JMJD5 [3])	AspH (%): substrate hydroxylation with the compound as cosubstrate (human AspH [4])	IC50 (human JMJD5 [5]) [µM]	FIH (%): substrate hydroxylation with the compound as cosubstrate (human FIH [6])	IC50 (human FIH [7]) [µM]	IC50 (human AspH [8]) [µM]	KDM4E (%): substrate demethylation with the compound as cosubstrate (human KDM4E [2]; listed as Entry 22) [%]	AspH (%): substrate hydroxylation with the compound as cosubstrate (human AspH [4]; listed as Entry 22)	FIH (%): substrate hydroxylation with the compound as cosubstrate (human FIH [6]; listed as Entry 22)	JMJD5-catalyzed RPS6_128–148 hydroxylation, time course (human JMJD5 [3]; after 50 min, 10 μM cosubstrate, 0.15 μM JMJD5, 10 μM Fe(II), 2.0 μM RPS6_128–148) [%]
3-(4-methoxybenzyl)-2OG [2OG derivative 6]	> 50 µM	~ 5%	~ 10%	< 1%	> 50	< 1%	–	–	–	–	–	–
3-ethyl-2OG [2OG derivative 2]	> 50 µM	< 1%	< 1%	< 1%	> 20	~ 2%	–	–	–	–	–	–
4-(2-naphthyl)methyl-2OG [2OG derivative 23]	6 to 7 µM and ~6.9 µM	< 1%	< 1%	< 1%	> 50	< 1%	2.5 ± 0.1	–	–	–	–	–
4-methyl-2OG [2OG derivative 8]	–	< 1%	~ 10%	~ 10%	> 50	~ 45%	> 50	> 50	–	–	–	–
4-propyl-2OG [2OG derivative 11]	> 50 µM	< 1%	~ 10%	< 1%	> 50	~ 5%	–	–	–	–	–	–
O=C(O)C(=O)C1CC[C@@H](C(=O)O)C1 (mixture of isomers) [2OG derivative 14, (1R)-3-(carboxycarbonyl)cyclopentane-1-carboxylic acid]	27.9 ± 3.5 µM	–	–	–	–	–	> 50	–	< 1	~ 15%	~ 2%	–
O=C(O)C(=O)C1C2C=CC(C2)C1C(=O)O (racemic) [2OG derivative 26]	> 50 µM	< 1%	< 1%	< 1%	> 50	< 1%	> 50	–	–	–	–	–
O=C(O)C(=O)c1ccc(C(=O)O)s1 [2OG derivative 34]	> 50 µM	< 1%	< 1%	~ 15%	> 30	< 1%	> 50	–	–	–	–	–
CC1(C)c2ccccc2-c2ccc(CC(CC(=O)O)C(=O)C(=O)O)cc21 (centres unmarked) [Entry 7]	6 to 7 µM and ~6.1 µM	< 1%	< 1%	< 1%	–	< 1%	–	–	–	–	–	–
CC(CC(=O)C(=O)O)C(=O)O (centres unmarked) [Entry 8]	6 to 7 µM and ~6.6 µM	< 1%	< 1%	< 1%	–	< 1%	–	–	–	–	–	~30
